# In patent US12173018B2, “Penicillin-binding protein inhibitors” (priority 2018, dated 2024):
# Where two headings read alike, the source gives them in different places.
# Legend:
# [1] = test system: N. gonorrhoeae FA19; experiment: Liquid broth MIC, N. gonorrhoeae FA19; type: cell-based; settings: Neisseria gonorrhoeae; N. gonorrhoeae FA19, liquid broth; read-out: Minimum Inhibitory Concentration, N. gonorrhoeae FA19
# Outline: (§1)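 Broth microdilution in wild-type strains: colonies from GC agar with 1% Kellogg's supplement suspended in GC broth, inoculated at 5×10^5 CFU/mL into 2-fold compound dilutions. Plates incubated 40-42 hours at 36° C., 5% CO2; MIC read visually as lowest concentration with no growth.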
# [2] = test system: E. coli ATCC 25922; experiment: Broth microdilution MIC, E. coli ATCC 25922; type: cell-based; settings: Escherichia coli, ATCC25922; E. coli ATCC 25922, broth microdilution; read-out: MIC E. coli 25922
# Outline: (§2)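 Broth microdilution MICs followed CLSI methods in cation-supplemented Mueller-Hinton broth, with 2-fold serial compound dilutions. Log-phase cultures grown 3–5 h were added to a starting inoculum of 5×10^5 CFU/mL and incubated 16–20 h at 37 °C. The MIC was read visually as the lowest concentration with no growth.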
# [3] = test system: N. gonorrhoeae WHO F; experiment: Liquid broth MIC, N. gonorrhoeae WHO F; type: cell-based; settings: Neisseria gonorrhoeae; N. gonorrhoeae WHO F, liquid broth; read-out: Minimum Inhibitory Concentration, N. gonorrhoeae WHO F
# Outline: as §1
# [4] = test system: K. pneumoniae UMM; experiment: microbe, parasite or virus in culture; type: cell-based; settings: Klebsiella pneumoniae, read-out: MIC K. pneumoniae UMM
# Outline: as §2
# [5] = test system: K. pneumoniae SI-117; experiment: microbe, parasite or virus in culture; type: cell-based; settings: Klebsiella pneumoniae, SI117, read-out: MIC K. pneumoniae SI-117
# Outline: as §2
# [6] = test system: N. gonorrhoeae FA1090; experiment: Liquid broth MIC, N. gonorrhoeae FA1090; type: cell-based; settings: Neisseria gonorrhoeae; N. gonorrhoeae FA1090, liquid broth; read-out: Minimum Inhibitory Concentration, N. gonorrhoeae FA1090
# Outline: as §1
# [7] = target: E. coli PBP3 (Escherichia coli (strain K12), UniProt P0AD68); experiment: E. coli PBP3 Bocillin-FL fluorescence polarization competition binding assay
# Outline: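 Purified E. coli PBP (1.5 μM final) competed with inhibitor (0-1000 μM) for Bocillin-FL (0.1 μM final) in 50 mM Hepes pH 8.0, 300 mM NaCl, 5% glycerol. Fluorescence polarization (ex 490/em 520 nm) was read continuously for 60 min after Bocillin-FL addition. EC50 was the concentration that reduced Bocillin-FL binding by 50%.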
# [8] = K. pneumoniae UMM producing SHV-5 and KPC-2
# Chain of E. coli PBP3 (P0AD68 whole entry): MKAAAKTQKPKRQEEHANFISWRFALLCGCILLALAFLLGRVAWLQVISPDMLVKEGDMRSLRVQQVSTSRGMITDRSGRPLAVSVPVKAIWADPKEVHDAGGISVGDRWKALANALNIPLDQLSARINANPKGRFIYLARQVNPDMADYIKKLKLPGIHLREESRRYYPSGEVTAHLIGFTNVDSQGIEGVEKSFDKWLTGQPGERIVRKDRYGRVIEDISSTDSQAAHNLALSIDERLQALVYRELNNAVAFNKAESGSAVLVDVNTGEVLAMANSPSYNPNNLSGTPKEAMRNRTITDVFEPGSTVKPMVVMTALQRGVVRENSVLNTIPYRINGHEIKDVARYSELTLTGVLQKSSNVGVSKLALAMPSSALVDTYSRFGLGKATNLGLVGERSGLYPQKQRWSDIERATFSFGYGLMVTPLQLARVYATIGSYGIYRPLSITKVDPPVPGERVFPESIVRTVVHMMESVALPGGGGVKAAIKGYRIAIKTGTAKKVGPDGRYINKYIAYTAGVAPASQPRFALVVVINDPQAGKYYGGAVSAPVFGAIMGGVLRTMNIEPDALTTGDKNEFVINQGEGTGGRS
SMILES,MIC [1] [µg/mL],MIC [2] [µg/mL],MIC [3] [µg/mL],"MIC [4, 8] [µg/mL]",MIC [5] [µg/mL],MIC [6] [µg/mL],"EC50 ([7]; fluorescence polarization competition binding with Bocillin-FL, read-out: E. coli K12 PBP3 Potency) [µM]",MIC [4] [µg/mL],EC50 [7] [µM]
"CCN1C[C@H](CO)N(C(=O)NC(C(=O)N[C@H]2Cc3ccc(F)c(C(=O)O)c3OB2O)c2ccc(O)c(O)c2Cl)C(=O)C1=O (stereo partly drawn) [Example 237, (3R)-3-(2-(2-chloro-3,4-dihydroxyphenyl)-2-((R)-4-ethyl-6-(hydroxymethyl)-2,3-dioxopiperazine-1-carboxamido)acetamido)-7-fluoro-2-hydroxy-3,4-dihydro-2H-benzo[e][1,2]oxaborinine-8-carboxylic acid]",4 to 8,2 to 4,0.25 to 0.5,2 to 4,2 to 4,1 to 2,< 30,–,–
"CCN1C[C@H](CCN)N(C(=O)NC(C(=O)N[C@H]2Cc3ccc(F)c(C(=O)O)c3OB2O)c2ccc(O)c(O)c2Cl)C(=O)C1=O (stereo partly drawn) [Example 238, (3R)-3-(2-((S)-6-(2-aminoethyl)-4-ethyl-2,3-dioxopiperazine-1-carboxamido)-2-(2-chloro-3,4-dihydroxyphenyl)acetamido)-7-fluoro-2-hydroxy-3,4-dihydro-2H-benzo[e][1,2]oxaborinine-8-carboxylic acid]",> 64,32 to 64,4 to 8,–,8 to 16,4 to 8,–,8 to 16,30 to 500
"CNCCN1CCN(C(=O)NC(C(=O)N[C@H]2Cc3cccc(C(=O)O)c3OB2O)c2ccc(O)c(O)c2Cl)C(=O)C1=O (stereo partly drawn) [Example 239, (3R)-3-(2-(2-chloro-3,4-dihydroxyphenyl)-2-(4-(2-(methylamino)ethyl)-2,3-dioxopiperazine-1-carboxamido)acetamido)-2-hydroxy-3,4-dihydro-2H-benzo[e][1,2]oxaborinine-8-carboxylic acid]",> 64,32 to 64,4 to 8,2 to 4,> 128,4 to 8,–,–,30 to 500
